Entries after “also recorded” stand apart in the source; their conditions may differ. Like-named read-outs stand apart in the source and are kept apart here.
Assays:
[1] = In vitro redox-cycling phenol red/horseradish peroxidase reporter assay; details: phenol red/HRP with DTT
Experimental: The in vitro redox-cycling capability of compounds was assessed by phenol red/horseradish peroxidase (HRP) assay by adaption of a previously described protocol. Briefly, stocks were prepared as follows: (1) DTT to a concentration of […] in PBS pH 7.4 buffer; (2) compound stocks in PBS pH 7.4 buffer to 3× the desired concentration by 1,000× dilution of DMSO stocks; (3) a stock of phenol red/HRP detection reagent containing 300 µg ml^−1 phenol red and 180 µg ml^−1 HRP enzyme in PBS pH 7.4 buffer; (4) a stock of 1 M NaOH in water; (5) a stock of 100 µM H2O2 in PBS prepared by addition of a 30% solution of H2O2 in water into 1,000 µl of PBS. Into each well of a 96-well clear flat-bottomed plate was then added 40 µl of compound stock in PBS followed by 40 µl of DTT stock, followed immediately by 40 µl of phenol red/HRP reagent. A positive control with 100 µM H2O2 added in place of compound was included. The plate was incubated in the dark at room temperature for 15 min. Following this, 20 µl of 1 M NaOH was added to each well to terminate the reaction. Absorbance was immediately measured at 610 nm (MiniMax i3x Imager, Molecular Devices). Absorbance of treated wells was normalized to control wells treated with PBS only (zero redox cycling).

AML cell line HL-60 = experiment: N-Acetyl cysteine cytotoxicity assay (trypan blue exclusion); format: cell-based; details: Homo sapiens, 96 h
Experimental: For assays involving cytotoxicity of β-lapachone derivatives with and without antioxidant N-acetyl cysteine, HL-60 cells were plated into 24-well plates at a concentration of 2.5 × 10^5 cells ml^−1 in 450 µl. To each well was then added 25 µl of drug diluted in PBS to obtain the correct in-plate drug concentration, and 25 µl of PBS or a stock of N-acetyl cysteine at 12 mM in PBS. DMSO was maintained at an in-plate concentration of 0.1%. After 96 h incubation, toxicity was assessed by counting of live cells using the trypan blue exclusion method with a Countess II Automated Cell Counter (ThermoFisher Scientific) according to the manufacturer’s instructions. Cell viability was determined by dividing the average live cell number of treated wells by the average live cell number for control wells treated with 0.1% DMSO. Viability for wells treated with N-acetyl cysteine was assessed by comparison with control wells treated with N-acetyl cysteine and 0.1% DMSO. IC50 values were calculated using GraphPad Prism 8 software.

recombinant human 5-LO = target: T1, recombinant human 5-LO (Homo sapiens, UniProt P09917); experiment: Cell-free activity assay for recombinant human 5-LO; format: biochemical
T1 construct: made in house; host or cells: Escherichia coli BL21
T1 sequence (P09917 1-674): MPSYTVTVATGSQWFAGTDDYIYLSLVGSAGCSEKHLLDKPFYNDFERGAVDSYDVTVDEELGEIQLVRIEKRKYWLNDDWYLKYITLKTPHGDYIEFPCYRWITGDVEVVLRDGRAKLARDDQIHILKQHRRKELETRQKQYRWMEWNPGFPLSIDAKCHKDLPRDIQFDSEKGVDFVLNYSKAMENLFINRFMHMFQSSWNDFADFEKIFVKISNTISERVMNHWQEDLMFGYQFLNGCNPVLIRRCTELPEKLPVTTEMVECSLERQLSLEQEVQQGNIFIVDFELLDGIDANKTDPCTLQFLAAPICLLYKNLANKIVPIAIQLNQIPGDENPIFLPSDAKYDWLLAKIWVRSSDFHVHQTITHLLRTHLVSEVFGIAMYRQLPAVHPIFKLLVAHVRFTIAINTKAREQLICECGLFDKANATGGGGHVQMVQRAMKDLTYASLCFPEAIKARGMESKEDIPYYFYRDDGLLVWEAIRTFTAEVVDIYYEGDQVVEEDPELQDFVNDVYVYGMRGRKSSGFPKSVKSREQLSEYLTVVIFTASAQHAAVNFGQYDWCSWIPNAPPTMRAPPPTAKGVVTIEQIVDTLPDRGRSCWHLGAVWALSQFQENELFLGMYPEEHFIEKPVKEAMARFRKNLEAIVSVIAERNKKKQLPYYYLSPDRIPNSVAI
Experimental: Escherichia coli (BL21) was transformed with pT3-5-LO plasmid, and recombinant 5-LO protein was expressed at 30 °C as described. Cells were lysed in 50 mM triethanolamine/HCl pH 8.0, 5 mM EDTA, 1 mM phenylmethanesulfonyl fluoride, soybean trypsin inhibitor (60 μg ml^−1) and lysozyme (1 mg ml^−1), homogenized by sonication (3 × 15 s) and centrifuged at 40,000g for 20 min at 4 °C. The 40,000g supernatant (S40) was applied to an ATP–agarose column to partially purify 5-LO as described. Aliquots of semipurified 5-LO (0.5 μg) were diluted with 1 ml ice-cold PBS containing 1 mM EDTA. Samples were preincubated with the test compound or vehicle (0.1% DMSO) with or without 1 mM DTT, as indicated. After 10 min at 4 °C, samples were prewarmed for 30 s at 37 °C, and 2 mM CaCl2 plus 20 μM arachidonic acid was added to start the formation of 5-LO products. After 10 min, the reaction was stopped by addition of 1 volume of ice-cold methanol, and the formed 5-LO products were analysed by reverse-phase HPLC as described. 5-LO products include the all-trans isomers of LTB4 (trLTB4 isomers) and 5(S)-hydroperoxy-6-trans-8,11,14-cis-eicosatetraenoic acid and its corresponding alcohol 5(S)-hydroxy-6-trans-8,11,14-cis-eicosatetraenoic acid.

ovine blood = experiment: Methaemoglobin analysis in ovine blood; set-up: species or system sheep; details: for methaemoglobin formation: in vitro ovine blood model, 1 h incubation
Experimental: Defibrinated Oxoid sheep’s blood (ThermoScientific) was diluted to a 5% v/v suspension in PBS pH 7.4. In a 96-well microtitre plate, 150 µl of blood suspension was added to 50 µl of serially diluted compound in PBS containing a 4× stock of each compound of interest. Serial dilution of compounds from DMSO stocks into PBS was performed to achieve an in-plate DMSO concentration of 0.1%. PBS buffer alone was used as a negative control. The plate was incubated for the specified time at 37 °C. The plate was then centrifuged at 3,500 r.p.m. for 5 min. The supernatant was removed and cells lysed by resuspension in 100 µl of a solution of Triton-X-100 (1%) in PBS. Following this, 80 µl of lysed cell contents were transferred to a second microtitre plate for ultraviolet measurement. Ultraviolet absorbance was measured immediately at 630 nm (MiniMax i3x Imager, Molecular Devices). Methaemoglobin increase was determined by A630−A6300/A6300×100 , where A630 is the absorbance of the test well at 630 nm, and A6300 is the absorbance of the negative control at 630 nm.

[2] = with ROS quencher NAC (600 µM), read-out: IC50, toxicity to HL-60 with NAC
[3] = without NAC, read-out: IC50, toxicity to HL-60 without NAC
[4] = without DTT, read-out: IC50, 5-LO inhibition without DTT

| IC50 (recombinant human 5-LO; with DTT (1 mM), read-out: IC50, 5-LO inhibition with DTT) | SMILES | concentration above which redox activity saturates the assay [1] | IC50 (AML cell line HL-60; [2]) | IC50 (AML cell line HL-60; [3]) | IC50 (recombinant human 5-LO; [4]) | lowest dose concentration with detectable methaemoglobin formation (ovine blood; after 1 h of incubation) | methaemoglobin formation (ovine blood) | in vitro redox activity ([1]; up to 25 μM) |
| --- | --- | --- | --- | --- | --- | --- | --- | --- |
| – | CC1(C)CCC2=C(O1)c1ccccc1C(=O)C2=O [Compound 1, β-lapachone, reference compound] | above 10 μM | 1.18 ± 0.18 µM | 0.47 ± 0.26 µM | > 30 µM | 10 µM | dose-dependent methaemoglobin formation | – |
| 10.4 ± 4.1 µM | CC1(C)CCC2=C(O1)c1ccccc1C(O)(Cc1ccccc1)C2=O (stereo not drawn) [Compound 24, benzyl β-lapa-ketol] | – | 10.5 ± 0.9 µM | 13.6 ± 1.3 µM | 8 ± 2.5 µM | – | did not occur | non-redox active; also recorded: no measurable redox activity |

From paper PMC9252919, “Controlled masking and targeted release of redox-cycling ortho-quinones via a C–C bond-cleaving 1,6-elimination” (Nature Chemistry, 2022)
